Laboratory results published in the NIST ThermoML archive (doi:10.1016/j.jct.2017.03.032).
± gives the expanded uncertainty stated by the source.

Assay: wn = mass fraction of the nth substance listed
Details: Gas, Burnett expansion method

F/C=C/C(F)(F)F [trans-1,3,3,3-tetrafluoropropene] + CC(C)C
Details	mass density [kg/m3]
280.17 K, 167.4 kPa, w1 = 0.7	6.7132 ± 0.87
280.17 K, 218.3 kPa, w1 = 0.7	8.9087 ± 0.88
280.18 K, 165.3 kPa, w1 = 0.65	6.4038 ± 0.84
280.18 K, 215.5 kPa, w1 = 0.65	8.4982 ± 0.84
280.18 K, 229.9 kPa, w1 = 0.8	10.1496 ± 0.91
285.05 K, 159.8 kPa, w1 = 0.8	6.7596 ± 0.9
285.06 K, 208.9 kPa, w1 = 0.8	8.9702 ± 0.92
285.06 K, 266.4 kPa, w1 = 0.75	11.209 ± 0.86
285.06 K, 272 kPa, w1 = 0.8	11.904 ± 0.96
285.06 K, 290 kPa, w1 = 0.9	13.8805 ± 0.98
285.08 K, 149.5 kPa, w1 = 0.65	5.6292 ± 0.8
285.08 K, 195.5 kPa, w1 = 0.65	7.4702 ± 0.82
285.08 K, 254.6 kPa, w1 = 0.65	9.9134 ± 0.83
285.09 K, 151.9 kPa, w1 = 0.7	5.9363 ± 0.82
285.09 K, 198.7 kPa, w1 = 0.7	7.8779 ± 0.85
285.09 K, 258.7 kPa, w1 = 0.7	10.4543 ± 0.87
290.16 K, 140.3 kPa, w1 = 0.75	5.5569 ± 0.84
290.16 K, 183.7 kPa, w1 = 0.75	7.3743 ± 0.85
290.16 K, 234.4 kPa, w1 = 0.7	9.1876 ± 0.85
290.16 K, 239.9 kPa, w1 = 0.75	9.7861 ± 0.88
290.17 K, 153.8 kPa, w1 = 0.9	6.9178 ± 0.95
290.17 K, 201.4 kPa, w1 = 0.9	9.1804 ± 0.97
290.17 K, 262.6 kPa, w1 = 0.9	12.1828 ± 1
290.17 K, 304.8 kPa, w1 = 0.7	12.1924 ± 0.87
290.17 K, 311.8 kPa, w1 = 0.75	12.9866 ± 0.9
290.17 K, 340.7 kPa, w1 = 0.9	16.1673 ± 1
290.18 K, 176 kPa, w1 = 0.65	6.5292 ± 0.8
290.18 K, 179.5 kPa, w1 = 0.7	6.9229 ± 0.82
290.18 K, 229.9 kPa, w1 = 0.65	8.6646 ± 0.81
290.18 K, 299.2 kPa, w1 = 0.65	11.4985 ± 0.83
290.19 K, 148.1 kPa, w1 = 0.85	6.3743 ± 0.91
290.19 K, 193.9 kPa, w1 = 0.85	8.459 ± 0.93
290.19 K, 252.9 kPa, w1 = 0.85	11.2256 ± 0.96
290.19 K, 328.4 kPa, w1 = 0.85	14.8972 ± 0.99
290.2 K, 188.8 kPa, w1 = 0.8	7.8842 ± 0.89
290.2 K, 246.5 kPa, w1 = 0.8	10.4628 ± 0.92
290.2 K, 320.1 kPa, w1 = 0.8	13.8847 ± 0.95
295.18 K, 138.3 kPa, w1 = 0.9	6.0742 ± 0.92
295.18 K, 181.5 kPa, w1 = 0.9	8.0608 ± 0.94
295.18 K, 198.3 kPa, w1 = 0.65	7.2638 ± 0.78
295.18 K, 258.7 kPa, w1 = 0.65	9.6394 ± 0.81
295.18 K, 308.8 kPa, w1 = 0.9	14.1958 ± 1
295.18 K, 336.3 kPa, w1 = 0.65	12.7921 ± 0.82
295.18 K, 399.6 kPa, w1 = 0.9	18.8389 ± 1
295.19 K, 151.4 kPa, w1 = 0.65	5.4735 ± 0.76
295.19 K, 237.2 kPa, w1 = 0.9	10.6968 ± 0.97
295.2 K, 160.8 kPa, w1 = 0.7	6.0421 ± 0.79
295.2 K, 173.7 kPa, w1 = 0.85	7.366 ± 0.89
295.2 K, 210.4 kPa, w1 = 0.7	8.0182 ± 0.81
295.2 K, 227.4 kPa, w1 = 0.85	9.7751 ± 0.92
295.2 K, 274.6 kPa, w1 = 0.7	10.6407 ± 0.84
295.2 K, 296.4 kPa, w1 = 0.85	12.9722 ± 0.96
295.2 K, 356.2 kPa, w1 = 0.7	14.1209 ± 0.87
295.2 K, 384.1 kPa, w1 = 0.85	17.2147 ± 1
295.21 K, 165.5 kPa, w1 = 0.75	6.4713 ± 0.83
295.21 K, 216.7 kPa, w1 = 0.75	8.5879 ± 0.85
295.21 K, 282.6 kPa, w1 = 0.75	11.3966 ± 0.88
295.21 K, 366.4 kPa, w1 = 0.75	15.1241 ± 0.91
295.22 K, 169.2 kPa, w1 = 0.8	6.8878 ± 0.86
295.22 K, 221.5 kPa, w1 = 0.8	9.1405 ± 0.88
295.22 K, 288.6 kPa, w1 = 0.8	12.13 ± 0.92
295.22 K, 374 kPa, w1 = 0.8	16.0973 ± 0.95
300.14 K, 198.5 kPa, w1 = 0.8	7.9893 ± 0.85
300.14 K, 259.5 kPa, w1 = 0.8	10.6023 ± 0.88
300.14 K, 337.5 kPa, w1 = 0.8	14.0697 ± 0.91
300.16 K, 151.4 kPa, w1 = 0.8	6.02 ± 0.83
300.16 K, 156.6 kPa, w1 = 0.85	6.5188 ± 0.88
300.16 K, 205.4 kPa, w1 = 0.85	8.6508 ± 0.89
300.16 K, 268.4 kPa, w1 = 0.85	11.4801 ± 0.93
300.16 K, 348.9 kPa, w1 = 0.85	15.2347 ± 0.99
300.16 K, 448.5 kPa, w1 = 0.85	20.2174 ± 1
300.17 K, 466.4 kPa, w1 = 0.9	21.9125 ± 1.1
300.18 K, 162.8 kPa, w1 = 0.9	7.0652 ± 0.91
300.18 K, 213.3 kPa, w1 = 0.9	9.3759 ± 0.94
300.18 K, 278.5 kPa, w1 = 0.9	12.4424 ± 0.97
300.18 K, 361.8 kPa, w1 = 0.9	16.5116 ± 1
300.19 K, 141.1 kPa, w1 = 0.65	4.9939 ± 0.74
300.19 K, 147.4 kPa, w1 = 0.75	5.6247 ± 0.8
300.19 K, 185.2 kPa, w1 = 0.65	6.6273 ± 0.76
300.19 K, 193.2 kPa, w1 = 0.75	7.4643 ± 0.82
300.19 K, 242.2 kPa, w1 = 0.65	8.7948 ± 0.78
300.19 K, 252.7 kPa, w1 = 0.75	9.9055 ± 0.84
300.19 K, 315.5 kPa, w1 = 0.65	11.6712 ± 0.82
300.19 K, 328.9 kPa, w1 = 0.75	13.1452 ± 0.89
300.19 K, 408.2 kPa, w1 = 0.65	15.4884 ± 0.84
300.19 K, 425.4 kPa, w1 = 0.75	17.4445 ± 0.93
300.21 K, 143.9 kPa, w1 = 0.7	5.2837 ± 0.77
300.21 K, 188.7 kPa, w1 = 0.7	7.0118 ± 0.79
300.21 K, 246.8 kPa, w1 = 0.7	9.3051 ± 0.81
300.21 K, 321.3 kPa, w1 = 0.7	12.3484 ± 0.85
300.21 K, 415.8 kPa, w1 = 0.7	16.3872 ± 0.88
305.17 K, 185.5 kPa, w1 = 0.8	7.2959 ± 0.82
305.17 K, 243 kPa, w1 = 0.8	9.6822 ± 0.85
305.17 K, 316.9 kPa, w1 = 0.8	12.8488 ± 0.89
305.17 K, 410.9 kPa, w1 = 0.8	17.0511 ± 0.92
305.18 K, 145.2 kPa, w1 = 0.85	5.912 ± 0.87
305.18 K, 169.9 kPa, w1 = 0.7	6.1677 ± 0.76
305.18 K, 189.6 kPa, w1 = 0.85	7.8456 ± 0.87
305.18 K, 249.6 kPa, w1 = 0.85	10.4115 ± 0.89
305.18 K, 290.8 kPa, w1 = 0.7	10.8618 ± 0.81
305.18 K, 325.5 kPa, w1 = 0.85	13.8167 ± 0.94
305.18 K, 377.9 kPa, w1 = 0.7	14.4143 ± 0.86
305.18 K, 420.8 kPa, w1 = 0.85	18.3356 ± 1
305.18 K, 536.7 kPa, w1 = 0.85	24.3325 ± 1.1
305.19 K, 181.1 kPa, w1 = 0.75	6.8373 ± 0.79
305.19 K, 222.7 kPa, w1 = 0.7	8.1848 ± 0.78
305.19 K, 237.2 kPa, w1 = 0.75	9.0735 ± 0.82
305.19 K, 401.5 kPa, w1 = 0.75	15.9791 ± 0.89
305.19 K, 487 kPa, w1 = 0.7	19.1285 ± 0.92
305.2 K, 162.4 kPa, w1 = 0.65	5.6789 ± 0.73
305.2 K, 212.9 kPa, w1 = 0.65	7.5363 ± 0.75
305.2 K, 278.3 kPa, w1 = 0.65	10.001 ± 0.78
305.2 K, 309.5 kPa, w1 = 0.75	12.0406 ± 0.85
305.2 K, 361.8 kPa, w1 = 0.65	13.2721 ± 0.83
305.2 K, 465.9 kPa, w1 = 0.65	17.6129 ± 0.85
305.21 K, 150 kPa, w1 = 0.9	6.375 ± 0.89
305.21 K, 196.9 kPa, w1 = 0.9	8.4599 ± 0.91
305.21 K, 257.6 kPa, w1 = 0.9	11.2269 ± 0.94
305.21 K, 335.6 kPa, w1 = 0.9	14.8987 ± 0.98
305.21 K, 434.3 kPa, w1 = 0.9	19.7715 ± 1
305.21 K, 557 kPa, w1 = 0.9	26.2379 ± 1.1
310.09 K, 153.4 kPa, w1 = 0.7	5.4721 ± 0.74
310.09 K, 569.4 kPa, w1 = 0.7	22.5217 ± 0.95
310.1 K, 157.4 kPa, w1 = 0.8	6.0902 ± 0.79
310.1 K, 201.9 kPa, w1 = 0.7	7.2614 ± 0.75
310.1 K, 207.9 kPa, w1 = 0.8	8.082 ± 0.81
310.1 K, 271.8 kPa, w1 = 0.75	10.3201 ± 0.81
310.1 K, 272 kPa, w1 = 0.8	10.7254 ± 0.85
310.1 K, 344.7 kPa, w1 = 0.7	12.7882 ± 0.82
310.1 K, 354.2 kPa, w1 = 0.75	13.6955 ± 0.85
310.1 K, 354.6 kPa, w1 = 0.8	14.233 ± 0.89
310.1 K, 458.2 kPa, w1 = 0.8	18.8881 ± 0.97
310.1 K, 459.6 kPa, w1 = 0.75	18.1746 ± 0.93
310.1 K, 583 kPa, w1 = 0.75	24.1187 ± 0.99
310.1 K, 583.3 kPa, w1 = 0.8	25.0653 ± 1
310.11 K, 158.1 kPa, w1 = 0.75	5.86 ± 0.77
310.11 K, 207.6 kPa, w1 = 0.75	7.7765 ± 0.79
310.11 K, 446.6 kPa, w1 = 0.7	16.9702 ± 0.89
310.12 K, 264.5 kPa, w1 = 0.7	9.6359 ± 0.78
310.12 K, 493.5 kPa, w1 = 0.9	22.3926 ± 1
310.13 K, 166 kPa, w1 = 0.85	6.6824 ± 0.86
310.13 K, 172 kPa, w1 = 0.9	7.22 ± 0.88
310.13 K, 225.6 kPa, w1 = 0.9	9.5815 ± 0.9
310.13 K, 294.9 kPa, w1 = 0.9	12.7151 ± 0.93
310.13 K, 337.1 kPa, w1 = 0.65	12.0235 ± 0.78
310.13 K, 372.9 kPa, w1 = 0.85	15.6171 ± 0.93
310.13 K, 383.7 kPa, w1 = 0.9	16.8736 ± 0.99
310.13 K, 436.3 kPa, w1 = 0.65	15.9559 ± 0.85
310.13 K, 556 kPa, w1 = 0.65	21.1744 ± 0.9
310.13 K, 607.5 kPa, w1 = 0.85	27.5031 ± 1.1
310.14 K, 196.8 kPa, w1 = 0.65	6.8271 ± 0.73
310.14 K, 216.8 kPa, w1 = 0.85	8.8678 ± 0.86
310.14 K, 258.2 kPa, w1 = 0.65	9.0598 ± 0.75
310.14 K, 285 kPa, w1 = 0.85	11.7678 ± 0.87
310.14 K, 479.8 kPa, w1 = 0.85	20.7246 ± 1
310.15 K, 149.8 kPa, w1 = 0.65	5.1443 ± 0.72
